# Results published in patent publication US20200121620A1, “SENOLYTIC COMPOUNDS” (UNITED KINGDOM RESEARCH AND INNOVATION, priority 2017, published 2020).
# Structures can show the parent of a compound that is named as a salt.
# Tests used:
# [1] = use in vivo; cited from earlier work
# [2] = tested on: senescent cells in the lung; assay: Elimination of senescent cells induced by whole body irradiation in mice; format: in vivo; conditions: 6 Gray whole body irradiation; 2 months later treated for 4 consecutive days; FIG. 16
# Description: (A) Experimental set up, mice (n=5 per group) were irradiated with 6 Gray to induce senescence. […] (B) Cryosections of lungs obtained from control and irradiated mice were stained with hematoxilin and eosin (to reveal tissue architecture), and SA-β-Gal (to reveal senescent cells). Senescent cells accumulate in the bronchioles of irradiated mice. (C) Quantification of the lung area positive for SA-β-Gal staining. […] (D). Representative pictures of lung cryosections.
# Whole-body irradiation is known to cause senescence. In irradiated mice, senescent cells accumulate in different tissues, including the lung (Chang et al., 2016; Yosef et al., 2016).
# [3] = tested on: senescent cells in the lung; assay: Elimination of senescent cells induced by Doxorubicin treatment in mice; format: in vivo; conditions: single dose 10 mg/kg Doxorubicin; 2 months later treated for 4 consecutive days; FIG. 15
# Procedure: (A) Experimental set up, mice (n=5 per group) were administered with a single dose of 10 mg/kg of Doxorubicin. […] (B) Cryosections of lungs obtained from control and doxorubicin treated mice were stained with hematoxilin and eosin (to reveal tissue architecture), and SA-β-Gal (to reveal senescent cells). Senescent cells accumulate in the bronchioles of doxorubicin-treated mice. (C) Quantification of the lung area positive for SA-β-Gal staining. […] (D) Representative pictures of lung cryosections.
# Further experiments investigated whether the senolytic agents were capable of eliminating senescent cells in vivo. […] These senescent cells are responsible for some of the side-effects associated with chemotherapy and can fuel the growth of cancerous cells (Demaria et al., 2016). […] Doxorubicin treatment induces senescence in the lung.
# [4] = cited from earlier work
# [5] = in vivo; cited from earlier work
# IMR90 ER:RAS cells [6] = assay: Senolytic activity in IMR90 ER:RAS cells undergoing oncogene-induced senescence (4OHT) vs DMSO-treated non-senescent cells; conditions: for death of cells undergoing oncogene induced senescence: 100 nM 4OHT, treated 6 days after induction at indicated concentrations, FIG. 18; for ability of FAK inhibitors to kill differentially senescent cells (4OHT induced) vs non-senescent cells (DMSO treated): FIG. 12; for senolytic properties: selective reduction of senescent (+4OHT) vs normal (−4OHT) cell numbers: 10 μM added 6 days after 100 nM 4OHT, cell numbers 4 days after (DAPI or crystal violet), FIG. 1, FIG. 10
# Procedure: FIG. 1: (A) IMR90 ER:RAS cells were induced to undergo senescence by treating them with 100 nM 4OHT for 6 days. At that point, 10 μM of the indicated drugs was added. In parallel, the same treatments were carried out in IMR90 ER:RAS cells treated with DMSO (−4OHT). […] Cells were fixed at day 6, 8 and 10 after 4OHT induction and stained with crystal violet to assess cell viability. T, Tyr-AG879; P, PF-573228; C, Cyclosporine. (B) A similar experiment to (A) was conducted and cells at day 10 post-induction were fixed and stained with DAPI to assess cell numbers
# In the setup used, IMR90 ER:RAS cells were treated with 100 nM 4OHT to induce OIS (oncogene induced senescence) and activate the ER:RAS fusion protein. 6 days after 4OHT induction (+4OHT), once cells were fully senescent, the agents to be tested were added at a concentration of 10 μM, and cell numbers were assessed 4 days after by DAPI stained couple to automated microscopy. Alternatively, cells were fixed and stained with crystal violet. In parallel, the same treatments were carried out in IMR90 ER:RAS cells treated with DMSO (−4OHT).
# IMR90 ER:RAS cells were induced to undergo senescence by treating them with 100 nM 4OHT for 6 days. At that point, 10 μM of the indicated drugs was added. In parallel, the same treatments were carried out in IMR90 ER:RAS cells treated with DMSO (−4OHT). […] Cells were fixed at day 6, 8 and 10 after 4OHT induction and stained with crystal violet to assess cell viability. A similar experiment was conducted and cells at day 10 post-induction were fixed and stained with DAPI to assess cell numbers (see FIG. 1).
# [7] = tested on: IMR90 cells undergoing OIS; assay: Western blot of cleaved caspase 3 in IMR90 cells undergoing OIS; format: cell-based, human; conditions: FIG. 17
# Description: Western blot showing cleaved caspase 3 upon treatment of IMR90 cells undergoing OIS with cardiac glycosides.
# [8] = tested on: IMR90 Cherry and IMR90 ER:RAS GFP cells; assay: Mixed cultures of normal (IMR90 Cherry) and senescent (IMR90 ER:RAS GFP) cells; format: cell-based, human; conditions: IMR90 Cherry mixed with IMR90 ER:RAS GFP, 4OHT; FIG. 14
# Description: FIG. 14: Senolytic agents JFD 00244 and Rottlerin specifically eliminate senescent cells in mixed cultures containing normal and senescent cells. (A) Setup of the experiments, in which normal cells (IMR90 Cherry) are mixed with IMR90 ER:RAS GFP cells (which become senescent in the presence of 4OHT). (B) Representative pictures showing the mixed cultures treated with the indicated drugs. In the bottom row, upon 4OHT the IMR90 ER:RAS GFP cells are senescent. (C) Quantification of the IMR90 Cherry (left bar) and IMR90 ER:RAS GFP (right bar) in the mixed cultures.
# The above experiments were all performed comparing the effects of the drugs in cultures of normal and senescent cells. To understand whether the drugs selectively kill senescent cells from a mixed culture, experiments were conducted using Cherry-labelled normal IMR90 cells and GFP labelled IMR90 ER:RAS cells that could be induced to undergo senescence upon treatment with 4OHT (FIG. 14A).
# Compounds JFD 00244 and Rottlerin specifically eliminate senescent cells in mixed cultures containing normal and senescent cells (see FIG. 14). (A) Setup of the experiments, in which normal cells (IMR90 Cherry) are mixed with IMR90 ER:RAS GFP cells (which become senescence in the presence of 4OHT). […] (C) Quantification of the IMR90 Cherry and IMR90 ER:RAS GFP in the mixed cultures.
# [9] = tested on: Nras^G12V-positive senescent hepatocytes; assay: Model of liver cancer initiation (NrasG12V hydrodynamic tail vein injection); format: in vivo; conditions: CB17 SCID/beige mice, 1 mg/kg ip for 3 days from day 5, livers day 9
# Description: (A) CB17 SCID/beige mice immunosuppressed mice were subjected to hydrodynamic tail vein injection to express NrasG12V on the liver and induce oncogene-induced senescence on hepatocytes as described in Kang et al (Nature 2011, PMID: 22080947).
# old mice = assay: Intermittent ouabain treatment of old mice (ageing experiment); format: in vivo
# Procedure: (A) 24 month old female mice were subjected to the schedule summarized in this panel. […] (B) Results of rotarod test that assess the physical fitness and coordination of mice. Left bar=saline, right bar=Ouabain.
# The concentrations of Albumin (A), Amylase (B) and PHOS (C) on plasma were measured in mice from the aging experiment described in FIG. 21A. 90 days old female mice were included as a comparison (young).
# IMR90 ER:RAS cells [10] = assay: Senolysis in presence or absence of pan-caspase inhibitor QVD (apoptosis); format: cell-based, human; conditions: 2 or 3 days treatment, with or without QVD; FIG. 13
# Procedure: FIG. 13: Several of the senolytic agents kill senescent cells by inducing apoptosis. […] Consequently cells were treated with DMSO, ABT-263 or the indicated senolytics for 2 (A) or 3 days (B) in the presence (right bar) or absence (left bar) of the pan-caspase inhibitor QVD. Treatment of senescent cells with senolytics kills them, but is prevented in the case of PF-573228, rottlerin and rotenone by pre-treatment with the pan-caspase inhibitor QVD. ABT, ABT-263; PF, PF-573228; JFD, JFD 00244; DPI, diphenyleneiodonium.
# Experiments were conducted to investigate the mechanism by which the senolytics caused the elimination of senescent cells using a pan-caspase inhibitor (QVD).
# Several of the agents described herein kill senescent cells by inducing apoptosis. […] Consequently, cells were treated with DMSO, ABT-263 or the indicated senolytics for 2 (A) or 3 days (B) in the presence or absence of the pan-caspase inhibitor QVD. Treatment of senescent cells with senolytics kills them, but is prevented in the case of PF-573228, rottlerin and rotenone by pre-treatment with the pan-caspase inhibitor QVD (see FIG. 13).
compound,measurement,setting,value
CC1(C)CCC(c2ccc(Cl)cc2)=C(CN2CCN(c3ccc(C(=O)NS(=O)(=O)c4ccc(N[C@H](CCN5CCOCC5)CSc5ccccc5)c(S(=O)(=O)C(F)(F)F)c4)cc3)CC2)C1 [ABT-263],side-effect,[1],significant thrombocytopenia
same,lung area positive for SA-β-Gal staining (senescent cells),[2],partially eliminated
same,lung area positive for SA-β-Gal staining (senescent cells),[3],partially eliminated
CN(C)CC[C@H](CSc1ccccc1)Nc1ccc(S(=O)(=O)NC(=O)c2ccc(N3CCN(Cc4ccccc4-c4ccc(Cl)cc4)CC3)cc2)cc1[N+](=O)[O-] [ABT-737],solubility,[4],low
same,oral bioavailability,[5],low
CC(C)c1c(C(=O)Nc2ccccc2)c(-c2ccccc2)c(-c2ccc(F)cc2)n1CC[C@@H](O)C[C@@H](O)CC(=O)O [Atorvastatin calcium],"senolytic effect of statins, preferential killing of cells undergoing OIS","IMR90 ER:RAS cells [6]; 4OHT vs DMSO, FIG. 11",behaves as a senolytic in concentration dependent manner
"C[C@]12CC[C@H](O)C[C@H]1CC[C@@H]1[C@@H]2CC[C@]2(C)[C@@H](c3ccc(=O)oc3)CC[C@]12O [Bufalin, (3β,5β)-3,14-Dihydroxybufa-20,22-dienolide]",death of cells undergoing oncogene induced senescence,IMR90 ER:RAS cells [6],dose-dependent death of cells undergoing oncogene induced senescence
CNC(=O)c1ccc(Nc2ncc(C(F)(F)F)c(NCc3nccnc3N(C)S(C)(=O)=O)n2)cc1 [Defactinib],ability of FAK inhibitors to kill differentially senescent cells (4OHT induced) vs non-senescent cells (DMSO treated),IMR90 ER:RAS cells [6],preferentially kill senescent cells in a dose-dependent manner
C[C@H]1O[C@@H](O[C@H]2[C@@H](O)C[C@H](O[C@H]3[C@@H](O)C[C@H](O[C@H]4CC[C@@]5(C)[C@H](CC[C@@H]6[C@@H]5C[C@@H](O)[C@]5(C)[C@@H](C7=CC(=O)OC7)CC[C@]65O)C4)O[C@@H]3C)O[C@@H]2C)C[C@H](O)[C@@H]1O [Digoxin],death of cells undergoing oncogene induced senescence,IMR90 ER:RAS cells [6],dose-dependent death of cells undergoing oncogene induced senescence
same,cleaved caspase 3 (apoptosis in senescent cells),[7],induces apoptosis in senescent cells
"O=C1c2ccccc2C(=O)c2c(NCCc3ccc(O)cc3)ccc(NCCc3ccc(O)cc3)c21 [JFD00244, 1,4-Bis[(p-hydroxy-phenethyl)amino]-anthraquinone]",selective elimination of senescent cells from mixed cultures,[8],selective elimination of senescent cells from the co-cultures
"Nc1cc(N)c(N)cc1N [NSC 677249, 1,2,4,5- Benzenetetramine tetrahydrochloride]",ability of FAK inhibitors to kill differentially senescent cells (4OHT induced) vs non-senescent cells (DMSO treated),IMR90 ER:RAS cells [6],preferentially kill senescent cells in a dose-dependent manner
C[C@@H]1O[C@@H](O[C@H]2C[C@@H](O)[C@]3(CO)[C@H]4[C@H](O)C[C@]5(C)[C@@H](C6=CC(=O)OC6)CC[C@]5(O)[C@@H]4CC[C@]3(O)C2)[C@H](O)[C@H](O)[C@H]1O [Ouabain],SA-b-gal activity in liver,[9]; FIG. 25B,reduced
same,p21-positive cells,[9]; FIG. 25C,reduced
same,Nras-positive preneoplastic hepatocytes,[9]; FIG. 25D,reduced
same,death of cells undergoing oncogene induced senescence,IMR90 ER:RAS cells [6],dose-dependent death of cells undergoing oncogene induced senescence
same,senolytic activity on adding KCl (increased intracellular K+),"IMR90 ER:RAS cells [6]; with KCl, FIG. 20A",prevented by increasing the intracellular K^+ concentration by adding KCl
same,senolytic activity on inhibition of p38,"IMR90 ER:RAS cells [6]; with p38 inhibition, FIG. 20B",partially prevents the senolytic properties of ouabain
same,cleaved caspase 3 (apoptosis in senescent cells),[7],induces apoptosis in senescent cells
same,lung area positive for SA-β-Gal staining (senescent cells),[2],partially eliminated
same,lung area positive for SA-β-Gal staining (senescent cells),[3],partially eliminated
same,rotarod test (physical fitness and coordination),"old mice; 24 month old female mice, 1 mg/kg ip, 3 consecutive days on treatment weeks, FIG. 21",improves the physical fitness of old mice
same,"concentrations of Albumin, Amylase and PHOS on plasma","old mice; old mice of FIG. 21A vs young (90 days old), FIG. 22",reverts ageing-associated changes of metabolites in blood
same,SA-β-Gal positive cells in the liver,"old mice; old mice, FIG. 24",decreased senescence-associated β-galactosidase positive cells in the liver
same,expression of Cdkn2a mRNA (p16Ink4a),"old mice; qRT-PCR, liver, kidney and muscle of old female mice, FIG. 23",can be reduced after ouabain treatment
"CS(=O)(=O)c1cccc(CNc2nc(Nc3ccc4c(c3)CCC(=O)N4)ncc2C(F)(F)F)c1 [PF-573228, 6-[4-(3-methyane-sulfonyl-benzyl-amino)-5-trifluoro-methyl-pyrimidin-2-ylamino]-3,4-dihydro-1H-quinolin-2-one]",senolytic properties: selective reduction of senescent (+4OHT) vs normal (−4OHT) cell numbers,IMR90 ER:RAS cells [6],showed the most promising senolytic properties
same,ability of FAK inhibitors to kill differentially senescent cells (4OHT induced) vs non-senescent cells (DMSO treated),IMR90 ER:RAS cells [6],preferentially kill senescent cells in a dose-dependent manner
same,elimination of senescent cells with pan-caspase inhibitor QVD (apoptosis induction),IMR90 ER:RAS cells [10],selectively induce apoptosis of senescent cells
"C=C(C)[C@H]1Cc2c(ccc3c2O[C@@H]2COc4cc(OC)c(OC)cc4[C@@H]2C3=O)O1 [Rotenone, (2R,6aS,12aS)-1,2,6,6a,12,12a-hexahydro-2-isopropenyl-8,9-dimethoxychromeno[3,4-b]furo(2,3-h)chromen-6-one]",elimination of senescent cells with pan-caspase inhibitor QVD (apoptosis induction),IMR90 ER:RAS cells [10],selectively induce apoptosis of senescent cells
CC(=O)c1c(O)c(C)c(O)c(Cc2c(O)c3c(c(C(=O)/C=C/c4ccccc4)c2O)OC(C)(C)C=C3)c1O [Rottlerin],selective elimination of senescent cells from mixed cultures,[8],selective elimination of senescent cells from the co-cultures
same,elimination of senescent cells with pan-caspase inhibitor QVD (apoptosis induction),IMR90 ER:RAS cells [10],selectively induce apoptosis of senescent cells
"CC(C)(C)c1cc(/C=C(\C#N)C(N)=S)cc(C(C)(C)C)c1O [Tyrphostin AG879, (2E)-3-[3,5-Bis(1,1-dimethylethyl)-4-hydroxyphenyl]-2-cyano-2-propenethioamide]",senolytic properties: selective reduction of senescent (+4OHT) vs normal (−4OHT) cell numbers,IMR90 ER:RAS cells [6],showed the most promising senolytic properties
Cyclosporine,senolytic properties: selective reduction of senescent (+4OHT) vs normal (−4OHT) cell numbers,IMR90 ER:RAS cells [6],showed the most promising senolytic properties
